Experimental data reported in US9295732B2, “Conjugated TLR7 and/or TLR8 and TLR2 polycationic agonists” (CAYLA, priority 2013, dated 2016).
Several values for one entry are separate records, joined by “and”; a condition that tells them apart may be missing. Equal values may be shown once.

Experiments:
[1] = Nanoparticle (lipoplex) size by dynamic light scattering; conditions: 25° C., triplicate; for Mean Diameter: complexes with pDNA 3:24 (w:w), dynamic light scattering; for PDI: polydispersity index of complexes with pDNA 3:24 (w:w);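 for all read-outs here: lipoplexes of TLR7-TLR2 polyamine conjugates with plasmid DNA, formed over 30 min at room temperature in serum-free medium or 5% glucose, diameter in nm, PDI dimensionless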
human TLR7 = target: T1, human TLR7 (Homo sapiens, UniProt Q9NYK1); test: HEK-Blue hTLR7 NF-κB/AP-1 SEAP reporter assay; type: cell-based; conditions: HEK-Blue hTLR7 cells, 10 μg/mL to 10 pg/ml, 24 hours, OD at 655 nm, FIG. 1
T1 construct: host or cells: HEK293 (HEK-Blue™ hTLR7)
T1 sequence (Q9NYK1 27-1049): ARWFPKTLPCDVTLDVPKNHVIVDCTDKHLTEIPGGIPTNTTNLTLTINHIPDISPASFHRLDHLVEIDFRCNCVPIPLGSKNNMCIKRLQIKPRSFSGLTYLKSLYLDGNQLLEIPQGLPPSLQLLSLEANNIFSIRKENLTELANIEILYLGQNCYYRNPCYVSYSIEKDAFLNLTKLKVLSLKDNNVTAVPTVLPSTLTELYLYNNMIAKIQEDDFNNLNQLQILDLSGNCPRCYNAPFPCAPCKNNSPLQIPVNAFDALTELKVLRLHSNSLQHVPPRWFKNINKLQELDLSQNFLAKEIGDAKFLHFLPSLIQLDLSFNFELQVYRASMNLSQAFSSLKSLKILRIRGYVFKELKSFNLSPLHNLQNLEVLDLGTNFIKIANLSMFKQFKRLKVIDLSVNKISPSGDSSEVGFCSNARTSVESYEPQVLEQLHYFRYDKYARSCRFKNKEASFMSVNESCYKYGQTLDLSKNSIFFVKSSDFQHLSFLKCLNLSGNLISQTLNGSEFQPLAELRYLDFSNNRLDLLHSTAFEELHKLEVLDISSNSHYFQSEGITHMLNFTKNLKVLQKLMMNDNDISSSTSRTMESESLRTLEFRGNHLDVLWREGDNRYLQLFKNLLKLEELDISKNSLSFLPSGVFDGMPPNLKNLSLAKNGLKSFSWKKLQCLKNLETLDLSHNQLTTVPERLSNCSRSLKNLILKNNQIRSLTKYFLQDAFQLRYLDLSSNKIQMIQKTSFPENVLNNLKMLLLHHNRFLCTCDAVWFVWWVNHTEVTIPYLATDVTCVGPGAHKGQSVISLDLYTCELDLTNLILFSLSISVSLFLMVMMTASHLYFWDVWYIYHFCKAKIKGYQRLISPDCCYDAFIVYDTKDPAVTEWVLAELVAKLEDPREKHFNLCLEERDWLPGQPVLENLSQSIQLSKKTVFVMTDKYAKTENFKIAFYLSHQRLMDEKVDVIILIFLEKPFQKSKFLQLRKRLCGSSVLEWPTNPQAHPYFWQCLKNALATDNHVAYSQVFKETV
Protocol: (§1) Cell-based assays were carried out using TLR7 and TLR2 reporter cell lines (InvivoGen). The reporter cell lines are engineered HEK293 cells, a human embryonic kidney cell line (ATCC, CRL-1573) that stably express either murine TLR7 (HEK-Blue™ mTLR7) or human TLR7 (HEK-Blue™ hTLR7) or human TLR2 (HEK-Blue™ hTLR2) with an NF-κB-inducible secreted embryonic alkaline phosphatase (SEAP) as the reporter gene. The SEAP reporter gene is under the control of the NF-κB and AP-1-inducible promoter, which, upon treatment with a corresponding TLR ligand and activation of NF-κB and AP-1, induces the production of SEAP. Detection of SEAP is measured following culturing cells in HEK-Blue™ Detection media (InvivoGen). HEK-Blue™ Detection contains a SEAP substrate that when hydrolysed by SEAP produces a colorimetric change allowing for detection of SEAP as the protein is secreted. […] These assays were carried out using RAW-Blue™ Cells (InvivoGen), derived from RAW 264.7 mouse leukemic monocyte macrophage cell line (ATCC, CRL 2278) stably overexpressing a NF-B/AP-1 inducible SEAP reporter constructs.
(§2) To perform the assay, cells were seeded on 96 well microliter plates at 50,000 or 100,000 cells per well for HEK-Blue™ Cells and RAW-Blue™ Cells respectively, and cultured at 37° C. in the presence of the conjugated compounds The TLR7-TLR2 polyamine molecules were prepared as follows: First, stock solutions of the conjugated compounds of the invention were prepared in ethanol or water to a concentration of 10 mg/ml.
(§3) The working dilutions of the conjugated TLR7-TLR2 polyamine agonists made up in water or PBS were directly added to the reporter cell lines at a final concentration ranging from 10 μg/mL to 10 pg/ml and incubated at 37° C. for 24 hours. After 24 hours of incubation, the effect on reporter gene activity was determined by reading the OD at 655 nm using iMark™ Microplate Reader (BIO-RAD).

murine TLR7 = target: T2, murine TLR7 (Mus musculus, UniProt P58681); test: HEK-Blue mTLR7 NF-κB/AP-1 SEAP reporter assay; type: cell-based; conditions: HEK-Blue mTLR7 cells, 10 μg/mL to 10 pg/ml, 24 hours, OD at 655 nm, FIG. 2
T2 construct: host or cells: HEK293 (HEK-Blue™ mTLR7)
T2 sequence (P58681 27-1050): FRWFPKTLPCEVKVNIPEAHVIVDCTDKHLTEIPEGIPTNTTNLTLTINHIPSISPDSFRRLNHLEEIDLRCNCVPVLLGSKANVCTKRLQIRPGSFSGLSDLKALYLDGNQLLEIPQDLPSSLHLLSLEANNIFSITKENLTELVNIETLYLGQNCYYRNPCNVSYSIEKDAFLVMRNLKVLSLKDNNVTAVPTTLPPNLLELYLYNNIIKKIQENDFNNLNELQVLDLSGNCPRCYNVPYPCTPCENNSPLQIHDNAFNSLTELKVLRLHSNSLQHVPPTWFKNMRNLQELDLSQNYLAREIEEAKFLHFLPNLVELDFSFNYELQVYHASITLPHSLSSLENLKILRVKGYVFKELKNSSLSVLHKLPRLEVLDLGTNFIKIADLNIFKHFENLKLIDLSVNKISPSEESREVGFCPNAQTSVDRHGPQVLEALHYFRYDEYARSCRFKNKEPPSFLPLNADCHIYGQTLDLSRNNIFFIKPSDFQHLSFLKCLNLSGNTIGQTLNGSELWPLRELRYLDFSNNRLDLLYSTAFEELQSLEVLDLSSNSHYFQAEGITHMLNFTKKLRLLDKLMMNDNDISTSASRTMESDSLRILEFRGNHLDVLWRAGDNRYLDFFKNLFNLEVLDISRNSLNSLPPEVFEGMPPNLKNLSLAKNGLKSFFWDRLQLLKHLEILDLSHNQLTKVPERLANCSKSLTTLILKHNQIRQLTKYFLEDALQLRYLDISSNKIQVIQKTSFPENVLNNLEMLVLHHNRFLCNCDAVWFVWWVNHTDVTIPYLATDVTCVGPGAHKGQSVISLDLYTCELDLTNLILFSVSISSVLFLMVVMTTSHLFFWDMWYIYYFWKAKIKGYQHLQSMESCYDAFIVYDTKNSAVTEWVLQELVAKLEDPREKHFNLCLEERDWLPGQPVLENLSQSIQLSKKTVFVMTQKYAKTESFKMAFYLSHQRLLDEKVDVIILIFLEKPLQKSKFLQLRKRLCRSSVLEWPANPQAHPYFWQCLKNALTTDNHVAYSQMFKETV
Protocol: as §1, §2, §3

human TLR2 = target: T3, human TLR2 (Homo sapiens, UniProt O60603); test: HEK-Blue hTLR2 NF-κB/AP-1 SEAP reporter assay; type: cell-based; conditions: HEK-Blue hTLR2 cells, 10 μg/mL to 10 pg/ml, 24 hours, OD at 655 nm, FIG. 3
T3 construct: host or cells: HEK293 (HEK-Blue™ hTLR2)
T3 sequence (O60603 21-784): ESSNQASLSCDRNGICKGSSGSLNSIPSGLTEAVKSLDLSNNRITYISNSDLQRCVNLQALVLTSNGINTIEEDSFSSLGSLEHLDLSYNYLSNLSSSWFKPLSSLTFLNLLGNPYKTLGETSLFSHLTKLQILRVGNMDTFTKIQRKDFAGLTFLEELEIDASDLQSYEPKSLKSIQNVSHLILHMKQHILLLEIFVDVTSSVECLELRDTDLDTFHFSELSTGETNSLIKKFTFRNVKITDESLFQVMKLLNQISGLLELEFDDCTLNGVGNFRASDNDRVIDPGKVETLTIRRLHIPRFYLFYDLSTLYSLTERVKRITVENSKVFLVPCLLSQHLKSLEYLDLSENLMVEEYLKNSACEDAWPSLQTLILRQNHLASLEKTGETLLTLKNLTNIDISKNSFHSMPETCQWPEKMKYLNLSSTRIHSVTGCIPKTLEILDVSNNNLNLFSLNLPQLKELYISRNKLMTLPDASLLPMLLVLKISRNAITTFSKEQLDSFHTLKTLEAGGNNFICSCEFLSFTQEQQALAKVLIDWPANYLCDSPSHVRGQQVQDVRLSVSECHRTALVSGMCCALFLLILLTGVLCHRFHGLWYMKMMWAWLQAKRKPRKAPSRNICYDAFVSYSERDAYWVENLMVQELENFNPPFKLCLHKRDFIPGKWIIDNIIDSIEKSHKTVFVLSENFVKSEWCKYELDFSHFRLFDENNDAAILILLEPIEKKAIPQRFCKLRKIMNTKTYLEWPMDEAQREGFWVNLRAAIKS
Protocol: as §1, §2, §3

[2] = test system: endogenous TLR2 and TLR7 in RAW-Blue™ Cells; test: RAW-Blue Cells NF-κB/AP-1 SEAP reporter assay; type: cell-based, mouse; conditions: 24 hours, OD at 655 nm, FIG. 4
Protocol: as §1, §2, §3

plasmid DNA (pDNA) = test: Gel shift (mobility shift) assay of pDNA complexation; type: binding; conditions: pDNA:molecule ratio 3:24 (w:w), 0.8% agarose gel, compared to pDNA alone
Protocol: Then, 10 μl of pDNA:TLR7-TLR2 polyamine molecule complexes and 2 μl of charge buffer were mixed and loaded into wells of a 0.8% agarose gel. Samples were migrated through the gel in TAE buffer under 135 voltage for 21 mins and the migration of the pDNA was visualized following ethidium bromide staining under UV light. The ability of TLR7-TLR2 polyamine molecules to complex/associate with the pDNA was identified by partial or complete retardation of the pDNA migration toward the anode in the gel compared to pDNA alone. […] Ethidium bromide intercalation of pDNA in complex with molecules allowed visualization of complexed pDNA as a smear in the wells of the gel.

| Mean Diameter [1] | PDI [1] | SMILES | ability to activate hTLR7 (human TLR7) | ability to activate mTLR7 (murine TLR7) | ability to activate hTLR2 (human TLR2) | ability to activate endogenous TLR2 and TLR7 in RAW-Blue Cells [2] | ability to complex pDNA (retardation of pDNA migration in agarose gel) (plasmid DNA (pDNA)) |
| --- | --- | --- | --- | --- | --- | --- | --- |
| 147.0 nm and 148.5 nm and 156.7 nm | 0.185 and 0.193 and 0.210 | CCCCCCCCCCCCCCCC(=O)OCC(CSC[C@H](N)C(=O)NCCCNCCCCNCCCN)OC(=O)CCCCCCCCCCCCCCC (some centres unmarked) [CL419] | – | – | – | – | – |
| 145.9 nm and 155.8 nm and 153.5 nm | 0.193 and 0.176 and 0.158 | CCCCCCCCCCCCCCCC(=O)OCC(CSC[C@H](N)C(=O)N[C@@H](CCCCNC(=O)CNC(=O)c1ccc(Cn2c(O)nc3c(N)nc(NCCCC)nc32)cc1)C(=O)NCCCNCCCCNCCCN)OC(=O)CCCCCCCCCCCCCCC (stereo partly drawn) [CL475, (6R,9S)-6,23-diamino-9-(4-(2-(4-((6-amino-2-(butylamino)-8-hydroxy-9H-purin-9-yl)methyl)benzamido)acetamido)butyl)-7,10-dioxo-4-thia-8,11,15,20-tetraazatrico sane-1,2-diyl dipalmitate] | activate hTLR7 | activate mTLR7 | activate hTLR2 | activate endogenous TLR2 and TLR7 | inability to migrate through an agarose gel |
| 202.0 nm and 209.2 nm and 179.7 nm | 0.234 and 0.236 and 0.232 | CCCCCCCCCCCCCCCC(=O)OCC(CSC[C@H](N)C(=O)NCCCC[C@H](NC(=O)c1ccc(Cn2c(O)nc3c(N)nc(NCCCC)nc32)cc1)C(=O)NCCCNCCCCNCCCN)OC(=O)CCCCCCCCCCCCCCC (stereo partly drawn) [CL486, (6R,13S)-6,27-diamino-13-(4-((6-amino-2-(butylamino)-8-hydroxy-9H-purin-9-yl)methyl)benzamido)-7,14-dioxo-4-thia-8,15,19,24-tetraazaheptacosane-1,2-diyl dipalmitate] | activate hTLR7 | activate mTLR7 | activate hTLR2 | activate endogenous TLR2 and TLR7 | inability to migrate through an agarose gel |
| – | – | CCCCCCCCCCCCCCCC(=O)N[C@@H](CSCC(COC(=O)CCCCCCCCCCCCCCC)OC(=O)CCCCCCCCCCCCCCC)C(=O)N[C@@H](CO)C(=O)N[C@@H](CCCCN)C(=O)N[C@@H](CCCCNC(=O)c1ccc(Cn2c(O)nc3c(N)nc(NCCCC)nc32)cc1)C(=O)N[C@@H](CCCCN)C(=O)N[C@@H](CCCCN)C(=O)O (stereo partly drawn) [CL536, (2S,5S,8S,11S,14S,17R)-8-(4-(4-((6-amino-2-(butylamino)-8-hydroxy-9H-purin-9-yl)methyl)benzamido)butyl)-2,5,11-tris(4-aminobutyl)-14-(hydroxymethyl)-4,7,10,13,16,24-hexaoxo-17-palmitamido-21-(palmitoyloxy)-23-oxa-19-thia-3,6,9,12,15-pentaazanonatriacontan-1-oic acid] | activate hTLR7 | activate mTLR7 | activate hTLR2 | activate endogenous TLR2 and TLR7 | inability to migrate through an agarose gel |
| – | – | CCCCCCCCCCCCCCCC(=O)N[C@@H](CSCC(COC(=O)CCCCCCCCCCCCCCC)OC(=O)CCCCCCCCCCCCCCC)C(=O)N[C@@H](CO)C(=O)N[C@@H](CCCCNC(=O)c1ccc(Cn2c(O)nc3c(N)nc(NCCCC)nc32)cc1)C(=O)N[C@@H](CCCCN)C(=O)N[C@@H](CCCCN)C(=O)N[C@@H](CCCCN)C(=O)O (stereo partly drawn) [CL537, (2S,5S,8S,11S,14S,17R)-11-(4-(4-((6-amino-2-(butylamino)-8-hydroxy-9H-purin-9-yl)methyl)benzamido)butyl)-2,5,8-tris(4-aminobutyl)-14-(hydroxymethyl)-4,7,10,13,16,24-hexaoxo-17-palmitamido-21-(palmitoyloxy)-23-oxa-19-thia-3,6,9,12,15-pentaazanonatria contan-1-oic acid] | activate hTLR7 | activate mTLR7 | activate hTLR2 | activate endogenous TLR2 and TLR7 | inability to migrate through an agarose gel |
